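Assay format: 96-well plates, 48-hour exposure. The concentration for full growth arrest is given as TGI.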
Legend:
Experiment in all cases: inhibition of tumour cell growth, NCI panel, 48 h
786-0 renal = test system: 786-0 renal
A498 renal = test system: A498 renal
A549 NSCLC = test system: A549 NSCLC
ACHN renal = test system: ACHN renal
BT-549 breast = test system: BT-549 breast
CCRF-CEM leukemia = test system: CCRF-CEM leukemia
COLO 205 colon = test system: COLO 205 colon
DU-145 prostate = test system: DU-145 prostate
EKVX NSCLC = test system: EKVX NSCLC
HCC-2998 colon = test system: HCC-2998 colon
HCT-116 colon = test system: HCT-116 colon
HCT-15 colon = test system: HCT-15 colon
HL-60(TB) leukemia = test system: HL-60(TB) leukemia
HOP-62 NSCLC = test system: HOP-62 NSCLC
HS 578T breast = test system: HS 578T breast
IGROV1 ovarian = test system: IGROV1 ovarian
K-562 leukemia = test system: K-562 leukemia
KM12 colon = test system: KM12 colon
LOX IMVI melanoma = test system: LOX IMVI melanoma
MALME-3M melanoma = test system: MALME-3M melanoma
MCF7 breast = test system: MCF7 breast
MDA-MB-231 breast = test system: MDA-MB-231 breast
MDA-MB-435 = test system: MDA-MB-435
MOLT-4 leukemia = test system: MOLT-4 leukemia
NCI-H23 lung = test system: NCI-H23 lung
NCI-H460 lung = test system: NCI-H460 lung
NCI-H522 lung = test system: NCI-H522 lung
NCI/ADR-RES ovarian = test system: NCI/ADR-RES ovarian
OVCAR-3 ovarian = test system: OVCAR-3 ovarian
OVCAR-4 ovarian = test system: OVCAR-4 ovarian
OVCAR-5 ovarian = test system: OVCAR-5 ovarian
OVCAR-8 ovarian = test system: OVCAR-8 ovarian
PC-3 prostate = test system: PC-3 prostate
RPMI-8226 leukemia = test system: RPMI-8226 leukemia
RXF 393 renal = test system: RXF 393 renal
SF-268 CNS = test system: SF-268 CNS
SF-295 CNS = test system: SF-295 CNS
SF-539 CNS = test system: SF-539 CNS
SK-MEL-28 melanoma = test system: SK-MEL-28 melanoma
SK-MEL-5 melanoma = test system: SK-MEL-5 melanoma
SK-OV-3 ovarian = test system: SK-OV-3 ovarian
SN12C renal = test system: SN12C renal
SR leukemia = test system: SR leukemia
SW-620 colon = test system: SW-620 colon
T-47D breast = test system: T-47D breast
TK-10 renal = test system: TK-10 renal
U251 CNS = test system: U251 CNS
UACC-257 melanoma = test system: UACC-257 melanoma
UACC-62 melanoma = test system: UACC-62 melanoma

Measured: TGI

COC(=O)[C@@H](Cc1ccccc1)NNC(=O)OC(C)(C)C
> 100 µM: 786-0 renal | A498 renal | A549 NSCLC | ACHN renal | BT-549 breast | CCRF-CEM leukemia | COLO 205 colon | DU-145 prostate | EKVX NSCLC | HCC-2998 colon | HCT-116 colon | HCT-15 colon | HL-60(TB) leukemia | HOP-62 NSCLC | HS 578T breast | IGROV1 ovarian | K-562 leukemia | KM12 colon | LOX IMVI melanoma | MALME-3M melanoma | MCF7 breast | MDA-MB-231 breast | MDA-MB-435 | MOLT-4 leukemia | NCI-H23 lung | NCI-H460 lung | NCI-H522 lung | NCI/ADR-RES ovarian | OVCAR-3 ovarian | OVCAR-4 ovarian | OVCAR-5 ovarian | OVCAR-8 ovarian | PC-3 prostate | RPMI-8226 leukemia | RXF 393 renal | SF-268 CNS | SF-295 CNS | SF-539 CNS | SK-MEL-28 melanoma | SK-MEL-5 melanoma | SK-OV-3 ovarian | SN12C renal | SR leukemia | SW-620 colon | T-47D breast | TK-10 renal | U251 CNS | UACC-257 melanoma | UACC-62 melanoma
